Marks after values point to notes of the source that are not given here.
How the values were obtained:
Format in all cases: in vivo
[1] = system: Erysiphe graminis f. sp. tritici; assay: Test A: wheat powdery mildew, preventive spray on wheat seedlings, disease rating
Method in brief: (§1)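 Applied as preventive foliar sprays to wheat seedlings, to run-off. Formulation: acetone (3% of final volume) predissolution, then acetone/water 50/50 with surfactant at 250 ppm. Rates were 200 ppm except flagged values at 40 or 50 ppm.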

[2] = system: Puccinia recondita f. sp. tritici; assay: Test B: wheat leaf rust, preventive spray on wheat seedlings, disease rating
Method in brief: as §1

[3] = system: Septoria nodorum; assay: Test C: wheat glume blotch, preventive spray on wheat seedlings, disease rating
Method in brief: as §1

[4] = system: Septoria tritici; assay: Test D: wheat leaf blotch, preventive spray on wheat seedlings, disease rating
Method in brief: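 Preventive test: one day after run-off spraying (200 ppm, equal to 500 g/ha, unless marked 40 or 50 ppm; acetone/water plus 250 ppm Trem 014), seedlings received S. tritici spore inoculum. Disease scored after 48 h at 24 °C in saturated air and 19 further days at 20 °C.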

[5] = system: Fusarium graminearum; conditions: 40 ppm (*); wheat head scab
[6] = system: Alternaria solani; assay: Test H: tomato early blight, preventive spray on tomato seedlings, disease rating
Method in brief: (§2)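 Disease ratings follow a preventive run-off spray of tomato seedlings. Compounds were first dissolved in acetone (3% of volume), then suspended in 50/50 acetone/water containing 250 ppm Trem 014. Test level 200 ppm (equivalent to 500 g/ha) except where marked * for 40 ppm or ** for 50 ppm.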

[7] = system: Botrytis cinerea; assay: Test F: tomato Botrytis, preventive spray on tomato seedlings, disease rating
Method in brief: as §2

[8] = 200 ppm, 100 = 100% disease control, 0 = no control relative to controls

| SMILES | Percentage Disease Control, Test A ([1]; 40 ppm (*)) | Percentage Disease Control, Test B ([2]; 40 ppm (*)) | Percentage Disease Control, Test C ([3]; 40 ppm (*)) | Percentage Disease Control, Test D ([4]; 40 ppm (*)) | Percentage Disease Control, Test H ([6]; 200 ppm) | Percentage Disease Control, Test F ([7]; 40 ppm (*)) | Percentage Disease Control, Test H ([6]; 40 ppm (*)) | Percentage Disease Control, Test F ([7]; 200 ppm) | further results |
| --- | --- | --- | --- | --- | --- | --- | --- | --- | --- |
| CC[Si](C)(C)CON=C(C)c1ccc(Cl)c(CNC(=O)OC)c1 [Compound 7] | 100* % | 100* % | 99* % | 100* % | – | – | – | – | Percentage Disease Control, Test E [5]: 0* % |
| COC(=O)NCc1cc(-c2ccn(-c3ccc(C(C)C)cc3)n2)ccc1Cl [Cmpd 110] | 100* % | 100* % | 100* % | 97* % | 85% | 96* % | – | – | – |
| COC(=O)NCc1cc(-c2ccn(CCOc3ccccc3)n2)ccc1Cl [Cmpd 59] | 98* % | 100* % | 99* % | 97* % | – | 0* % | 87* % | – | – |
| COC(=O)NCc1cc(C(C)=NOC[Si](C)(C)c2ccc(F)cc2)ccc1Cl [Compound 16] | 99* % | 100* % | 100* % | 100* % | – | – | 95* % | 67% | – |
| COC(=O)NCc1cc(-c2ccn(Cc3cccc(OC(F)(F)F)c3)n2)ccc1Cl [Cmpd 65] | 99* % | 99* % | 99* % | 100* % | – | 0* % | 8* % | – | – |
| CON=C(C(=O)OC)c1cc(-c2ccn(-c3cccc(C(F)(F)F)c3)n2)ccc1C [Cmpd 84] | 98* % | – | – | 99* % | 54% | – | – | 67% | Percentage Disease Control, Test B ([2]; 200 ppm): 80%; Percentage Disease Control, Test C ([3]; 200 ppm): 92% |
| COC(=O)NCc1cc(-c2ccn(Cc3ccc(C)cc3)n2)ccc1Cl [Cmpd 72] | 99* % | 99* % | 100* % | 100* % | – | 97* % | 94* % | – | – |
| COC(=O)NCc1cc(-c2ncn(-c3ccc(Br)cc3)n2)ccc1Cl [Cmpd 97] | 98* % | 100* % | 100* % | 100* % | 85% | – | – | 0% | – |
| COC(=O)NCc1cc(-c2ccn(-c3ccc(F)c(F)c3)n2)ccc1Cl [Cmpd 118] | – | – | – | – | 99% | – | – | 40% | Percentage Disease Control, Test A ([1]; 200 ppm): 100%; Percentage Disease Control, Test B ([2]; 200 ppm): 100%; Percentage Disease Control, Test C ([3]; 200 ppm): 100%; Percentage Disease Control, Test D ([4]; 200 ppm): 100% |
| COC(=O)NCc1cc(-c2ccn(Cc3ccccc3)n2)ccc1Cl [Cmpd 57] | 97* % | 100* % | 87* % | 100* % | – | 0* % | 96* % | – | – |
| COC(=O)NCc1cc(-c2ccn(-c3ccccc3Cl)n2)ccc1Cl [Cmpd 52] | 100* % | 100* % | 100* % | 100* % | 92% | – | – | 99% | – |
| COC(=O)NCc1cc(-c2ccn(-c3nccc(C(F)(F)F)n3)n2)ccc1Cl [Cmpd 87] | 82* % | 100* % | 97* % | 99* % | – | 0* % | 9* % | – | – |
| COC(=O)NCc1cc(-c2cn[nH]c2)ccc1Cl [Cmpd 127] | – | – | – | – | – | – | – | – | Percentage Disease Control, Test A [1, 8]: 0%; Percentage Disease Control, Test H [6, 8]: 0%; Percentage Disease Control, Test F [7, 8]: 0%; Percentage Disease Control, Test B [2, 8]: 9%; Percentage Disease Control, Test C [3, 8]: 0%; Percentage Disease Control, Test D [4, 8]: 53% |
| COC(=O)NCc1cc(-c2cc(C(F)(F)F)[nH]n2)ccc1Cl [Cmpd 100] | – | – | – | – | 0% | – | – | 0% | Percentage Disease Control, Test A ([1]; 200 ppm): 0%; Percentage Disease Control, Test B ([2]; 200 ppm): 0%; Percentage Disease Control, Test C ([3]; 200 ppm): 0%; Percentage Disease Control, Test D ([4]; 200 ppm): 40% |

Source: patent US9198433B2, “Substituted benzene fungicides” (E I DU PONT DE NEMOURS AND COMPANY, priority 2007, dated 2015)
